Test results published in patent publication US8551509B2, “Skin agent for external use and cosmetic agent including ubiquinone derivative or salt thereof and method using the same” (Showa Denko K.K., priority 2006, dated 2013).

Legend:
[1] = Maximum soluble amount in cosmetic liquid of prescription example 1 (HPLC); format: physicochemical; conditions: 1.0% added to prescription example 1, insolubles filtered off (1-μm filter paper)
Method: Specifically, ubiquinone or ubiquinol was added in an amount corresponding to 1.0%. The resultant suspension was filtered through 1-μm filter paper, and thereby insolubles were removed. The cosmetic liquids B and C were thus prepared.
The final concentrations of ubiquinone and ubiquinol in the cosmetic liquids B and C were measured by HPLC similarly to Example 1, resulting in 0.011% and 0.023%, respectively.

[2] = Water solubility at normal temperature; format: physicochemical
[3] = Maximum ubiquinone concentration in DMEM culture medium including 10% FBS (HPLC); format: physicochemical; conditions: DMEM with 10% FBS, 0.03% added, stirred 6 hours at room temperature, filtered
Method: To a DMEM culture medium including 10% FBS, reagent ubiquinone was added in an amount corresponding to 0.03%. The mixture was stirred with a stirrer at room temperature for 6 hours. The mixture was filtered through a 0.02 µm filter, and a ubiquinone-containing culture medium was prepared.

[4] = Test of radical scavenging ability (H2-DCFDA fluorescence, AAPH); format: biochemical; conditions: final concentration 0.006%, 30 minutes after AAPH addition, 37° C.
Method: The resultant solution was added to a 10 mM aqueous sodium hydroxide solution such that the concentration of the agent was 1 mM. The radical fluorescence detecting agent was hydrolyzed in the dark at room temperature for 60 minutes and was activated. The liquid was diluted with Dulbecco's phosphate buffered saline (PBS) to give a diluted liquid with a final concentration of 0.01 mM. […]-40 manufactured by Nihon Emulsion Co., Ltd.). […] The mixture thus prepared was used as a test liquid. A test liquid having a final ubiquinone concentration of 0.006% was prepared in the same manner using ubiquinone. A test liquid was prepared as described above except that the ubiquinone solution was replaced by the same volume of distilled water. This test liquid was used as a negative control. […] The mixture was heated to 37° C. After 30 minutes after the addition, the fluorescence intensity at an excitation wavelength of 495 nm and a fluorescence wavelength of 525 nm of the respective liquids was measured. The fluorescence suppression was obtained as radical scavenging ability of ubiquinone and potassium ubiquinol-1,4-diphosphate.

[5] = system: Normal human skin fibroblast cells NB1RGB; conditions: 3 days, 0.007 %
Method: Normal human skin fibroblast cells NB1RGB (spared from RIKEN) were inoculated to a DMEM culture medium including 10% FBS on a 9 cm Petri dish such that the normal human skin fibroblast cells NB1RGB were approximately 1.0×10^5 in number per ml. The cells were cultured in a CO2 incubator at 37° C. for 7 days to reach confluent while the culture medium was exchanged every 3 days. […] After the culture, the cells were cleaned three times on the Petri dish each with 10 ml of PBS(−), and were released and recovered using trypsin/EDTA. The cells were then resuspended in 1 ml of PBS(−), and were quickly broken with a homogenizer. Insoluble matters were removed by centrifugal separation at 10000 rpm for 10 minutes, and 10 μl of the supernatant was subjected to HPLC. The remainder was combined with an equivalent amount of hexane, and these were sufficiently mixed together to give a turbid liquid. The turbid liquid was subjected to centrifugal separation at 10000 rpm for 3 minutes, and the resultant supernatant hexane layer was analyzed by HPLC.
Column: Shodex F-511A (manufactured by Showa Denko K.K)
Column temperature: 40° C.
Eluent: methanol/water/phosphoric acid=1000/5/1
Detection: photodiode array 210 nm-370 nm
In the HPLC analysis, ubiquinone used in Synthetic Example 1 and ubiquinol immediately after synthesized in Synthetic Example 1 were used as references. […]

Molecule	final concentration in the cosmetic liquid (maximum soluble amount) [1] [%]	water solubility [2]	ubiquinone concentration in the culture medium (probably the maximum) [3] [%]	Fluorescence intensity (Ex 495/Em 525 nm: relative value) [4] [relative value]	Radical scavenging ability (Fluorescence suppression (%)) [4] [%]	Concentration in cells after culture: Ubiquinone [5] [ng/mL]
COc1c(O)c(C)c(C/C=C(\C)CC/C=C(\C)CC/C=C(\C)CC/C=C(\C)CC/C=C(\C)CC/C=C(\C)CC/C=C(\C)CC/C=C(\C)CC/C=C(\C)CCC=C(C)C)c(O)c1OC [ubiquinol]	0.023					
COC1=C(OC)C(=O)C(C/C=C(\C)CC/C=C(\C)CC/C=C(\C)CC/C=C(\C)CC/C=C(\C)CC/C=C(\C)CC/C=C(\C)CC/C=C(\C)CC/C=C(\C)CCC=C(C)C)=C(C)C1=O [ubiquinone, 2,3-dimethoxy-5-methyl-6-polyprenyl-1,4-benzoquinone]	0.011	less than 100 ppm	0.007	13315	41	2000
tetrapotassium ubiquinol-1,4-diphosphate				5001	78	
